Source: US11548891B1, “Quaternary ammonium salts of phenanthroindolizidine and phenanthroquinolizidine alkaloids as hypoxia-targeted anticancer agents” (BATTERJEE MEDICAL COLLEGE, priority 2022, dated 2023)
Read-outs that look alike come from different tables or passages of the source.

Columns and labels:
H460 = test: Cytotoxicity under normoxia and hypoxia (anaerobic chamber), H460; type: cell-based, Human; details: for HCR (Hypoxia Cytotoxicity Ratio = normoxic IC50/hypoxic IC50): H460; for IC50: 4 h exposure
Experimental: (§1) The ability of the designed prodrugs to liberate the active alkaloids in hypoxic tumors was evaluated by testing them under hypoxic conditions using an anaerobic chamber. The three prodrugs 5a-c and their parent alkaloids as well as the reference compounds PR-104A, the parent alcohol form of the phosphate pre-prodrug PR-104, and evofosfamide were tested using the HCT116 and H460 cell lines under both normoxic and hypoxic conditions (Table 5). The prodrugs were much less cytotoxic than the parent drugs, in agreement with the results using the other cell lines described above (see FIG. 6).
(§2) The eight cell lines HEK293 (Human embryonic kidney 293), CHO-Kt (Chinese hamster ovary K1), MCF-7 cells (Human breast adenocarcinoma), HCT116 (human colorectal carcinoma), RKO (Human rectal carcinoma), SW480 (human colorectal carcinoma), H460 (Human lung cancer), and MRCS (Normal human fetal lung fibroblast), were obtained from the ATCC. The cell lines were routinely grown in alpha minimum essential medium (α-MEM) containing 5% fetal calf serum (FCS). The appropriate number of cells (HCT116=400 cells/well, H460 cells=600 cells/well) were seeded into 96-well plates under normoxic or hypoxic conditions. Cells were plated in 100 μL α-MEM containing 10% FCS, 10 mM D-Glucose and 0.2 mM 20-deoxycytidine. After incubation for 2 h, the compounds were added at the appropriate concentration and incubated for further 4 h. The cells were then washed three times with drug-free α-MEM (containing 5% FCS and pen/strep). The plates were then incubated for 5 days under normoxic conditions. The cells were stained with sulphorhodamine B to measure total cells as per the standard procedure described in Skehan, et. al. [Skehan, P., et. al., J. Natl. Cancer Inst., 1990, 82, 1107-1112, incorporated herein by reference in its entirety]. The IC50 was determined by interpolation as the compound concentration reducing staining to 50% of controls on the same plate as per the standard procedure described in Guise, et. al. [Guise, C. P., et. al., Biochem. Pharmacol., 2007, 74, 810-820, incorporated herein by reference in its entirety].

HCT116 [1] = test: Cytotoxicity under normoxia and hypoxia (anaerobic chamber), HCT116; type: cell-based, human; details: for HCR (Hypoxia Cytotoxicity Ratio = normoxic IC50/hypoxic IC50): HTC 116; for IC50: 4 h exposure
Experimental: as §1, §2

LogD = type: physicochemical
Experimental: (§3) Water solubility, log D, and PAMPA-BBB were evaluated using the protocols as described in Omran, et. al. [Omran, Z., et. al., Chem. Pharm. Bull., 2019, 67, 1208-1210, incorporated herein by reference in its entirety].

[2] = BBB-Parallel Artificial Membrane Permeability Assay (BBB-PAMPA); type: in vitro ADME
Experimental: The physicochemical properties of the new compounds were evaluated (Table 1). […] Consequently, these derivatives lost their BBB penetrability, as predicted by the BBB-Parallel Artificial Membrane Permeability Assay (BBB-PAMPA), whereas their parent alkaloids had free passage through the BBB.
as §3

CHO-K1 = test: Cytotoxicity under normoxia (MTT), CHO-K1; type: cell-based, Chinese hamster; details: Cricetulus griseus, CHO-K1, read-out: IC50 CHO-K1
Experimental: (§4) The cytotoxicity of the compounds 5a-c and their parent alkaloids was evaluated by the 3-[4,5-dimethylthiazole-2-yl]-2,5-diphenyltetrazolium bromide (MTT) assay against 5 cancerous and 2 non-cancerous cell lines (Table 4).
as §2

PBS (pH 7.4) solubility = type: physicochemical
Experimental: as §3

HCT116 [3] = test: Cytotoxicity under normoxia (MTT), HCT116; type: cell-based, human; details: Homo sapiens, HCT-116, read-out: IC50 HCT116
Experimental: as §4, §2

RKO = test: Cytotoxicity under normoxia (MTT), RKO; type: cell-based, Human; details: Homo sapiens, RKO, read-out: IC50 RKO
Experimental: as §4, §2

MRC5 = test: Cytotoxicity under normoxia (MTT), MRC5; type: cell-based, human; details: Homo sapiens, MRC5, read-out: IC50 MRC5
Experimental: as §4, §2

MCF7 = test: Cytotoxicity under normoxia (MTT), MCF7; type: cell-based, Human; details: Homo sapiens, MCF7, read-out: IC50 MCF7
Experimental: as §4, §2

SW480 = test: Cytotoxicity under normoxia (MTT), SW480; type: cell-based, human; details: Homo sapiens, SW480, read-out: IC50 SW480
Experimental: as §4, §2

HEK293 = test: Cytotoxicity under normoxia (MTT), HEK293; type: cell-based, Human; details: Homo sapiens, HEK293, read-out: IC50 HEK293
Experimental: as §4, §2

[4] = Homo sapiens, NCI-H460, H460, hypoxia, read-out: IC50 (Hypoxia)
[5] = Homo sapiens, NCI-H460, H460, normoxia, read-out: IC50 (Normoxia)
[6] = Homo sapiens, HCT-116, HTC 116, hypoxia, read-out: IC50 (Hypoxia)
[7] = Homo sapiens, HCT-116, HTC 116, normoxia, read-out: IC50 (Normoxia)

Compound	HCR (Hypoxia Cytotoxicity Ratio = normoxic IC50/hypoxic IC50) (H460)	HCR (Hypoxia Cytotoxicity Ratio = normoxic IC50/hypoxic IC50) (HCT116 [1])	LogD Mean ± SE (LogD)	Permeability (Papp) Log [10^−6 cm/s] Mean ± SE [2]	IC50 (H460; [4]) [µM]	IC50 (H460; [5]) [µM]	IC50 (HCT116 [1]; [6]) [µM]	IC50 (HCT116 [1]; [7]) [µM]	also measured
CS(=O)(=O)OCCN(CCBr)c1c(C(=O)NCCO)cc([N+](=O)[O-])cc1[N+](=O)[O-] [PR-104A]	2.5	10.5							IC50 (H460; H460, hypoxia, read-out: IC50 (Hypoxia)): 0.533 µM; IC50 (H460; H460, normoxia, read-out: IC50 (Normoxia)): 1.34 µM; IC50 (HCT116 [1]; HTC 116, hypoxia, read-out: IC50 (Hypoxia)): 0.861 µM; IC50 (HCT116 [1]; HTC 116, normoxia, read-out: IC50 (Normoxia)): 16.5 µM
COC(=O)Nc1nc2ccc(C(=O)c3ccccc3)cc2[nH]1 [Mebendazole]			3.26 ± 0.01						
CNC(=C[N+](=O)[O-])NCCSCc1ccc(CN(C)C)o1 [Ranitidine]				<−7 Log [10^−6 cm/s]					
CN(C)CCCN1c2ccccc2Sc2ccc(Cl)cc21 [Chlorpromazine]				−5.4 ± 0.13 Log [10^−6 cm/s]					
Cn1c(COP(=O)(NCCBr)NCCBr)cnc1[N+](=O)[O-] [Evofosfamide, evofosfamide]	251	85			0.0172	4.32	0.0201	0.0239	
COc1ccc2c3c(c4cc(OC)c(OC)cc4c2c1)C[C@H]1CCC[N+]1(Cc1c([N+](=O)[O-])ncn1C)C3.[Br-] (stereo partly drawn) [Compound 5a, (13aR)-2,3,6-trimethoxy-10-((1-methyl-4-nitro-1H-imidazol-5-yl)methyl)-10,11,12,13,13a, 14-hexahydro-9H-dibenzo[f,h]pyrrolo[1,2-b]isoquinolin-10-ium bromide]			0.69 ± 0.01	<−7 Log [10^−6 cm/s]	0.618	15.8	0.425	16.5	IC50 (CHO-K1): 1.68 ± 0.542 µM; PBS (pH 7.4) Solubility μM Mean ± SE (PBS (pH 7.4) solubility): 154 ± 0 μM; IC50 (HCT116 [3]): 1.04 ± 0.021 µM; IC50 (RKO): 2.03 ± 0.267 µM; IC50 (MRC5): 0.327 ± 0.147 µM; IC50 (MCF7): 1.53 ± 0.144 µM; IC50 (SW480): 1.35 ± 0.000126 µM; IC50 (HEK293): 5.08 ± 0.519 µM
